Legend:
soybean = experiment: Test C pre-/postemergence herbicide test; type: in vivo, Glycine max; settings: for Soybean plant response rating: Preemergence, scale 0 to 100, 0 no effect, 100 complete control
In short: (§1)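 Visual ratings on a 0–100 scale (100 = complete control) made versus untreated controls after 12 to 14 greenhouse days. Test chemicals, formulated in surfactant-containing non-phytotoxic solvent, applied preemergence to planted seeds or postemergence to 1- to 4-leaf plants (2 to 18 cm).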

lambsquarters = experiment: Test C pre-/postemergence herbicide test; type: in vivo, Chenopodium album; settings: for Lambsquarters plant response rating: Preemergence, scale 0 to 100, 0 no effect, 100 complete control
In short: as §1

[1] = tested on: common (oilseed) sunflower; experiment: Test C pre-/postemergence herbicide test; type: in vivo, Helianthus annuus; settings: for Sunflower plant response rating: Preemergence, scale 0 to 100, 0 no effect, 100 complete control
In short: as §1

yellow nutsedge = experiment: Test C pre-/postemergence herbicide test; type: in vivo, Cyperus esculentus; settings: for Nutsedge, Yellow plant response rating: Preemergence, scale 0 to 100, 0 no effect, 100 complete control
In short: as §1

ducksalad = experiment: Test C flooded paddy test; type: in vivo, Heteranthera limosa; settings: for Plant response rating, Ducksalad: 500 g ai/ha, visual rating after 12 to 14 days
velvetleaf = experiment: Test C pre-/postemergence herbicide test; type: in vivo, Abutilon theophrasti; settings: for Velvetleaf plant response rating: Preemergence, scale 0 to 100, 0 no effect, 100 complete control
In short: as §1

goosegrass = experiment: Test C pre-/postemergence herbicide test; type: in vivo, Eleusine indica; settings: for Goosegrass plant response rating: Preemergence, scale 0 to 100, 0 no effect, 100 complete control
In short: as §1

cocklebur = experiment: Test C pre-/postemergence herbicide test; type: in vivo, Xanthium strumarium; settings: for Cocklebur plant response rating: Preemergence, 500 g ai/ha, scale 0 to 100, 0 no effect, 100 complete control
In short: as §1

barnyardgrass = experiment: Test C flooded paddy test; type: in vivo, Echinochloa crus-galli; settings: for Plant response rating, Barnyardgrass: 500 g ai/ha, visual rating after 12 to 14 days
In short: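 Greenhouse test with a 12–14 day hold after application and visual comparison with controls. Emerged plants were 1- to 4-leaf stage (2–18 cm) when sprayed postemergence, and the paddy barnyardgrass was at 2 leaves under flooded conditions. 100 = complete control.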

[2] = 62 g ai/ha, preemergence, scale 0 to 100
[3] = 250 g ai/ha, scale 0-100, preemergence
[4] = 125 g ai/ha, scale 0 (no effect) to 100 (complete control), visual, 12 to 14 days, preemergence
[5] = 500 g ai/ha, scale 0 to 100 (0 no effect, 100 complete control), visual, 12 to 14 days, preemergence
[6] = 125 g ai/ha, scale 0 to 100 (0 no effect, 100 complete control)
[7] = 250 g ai/ha, scale of 0 to 100, 0 is no effect, 100 is complete control
[8] = scale 0 to 100 (0 no effect, 100 complete control)
[9] = 62 g ai/ha, scale 0 to 100 (0 no effect, 100 complete control)
[10] = 250 g ai/ha, scale 0 to 100 (0 no effect, 100 complete control), visual, 12 to 14 days, preemergence
[11] = 125 g ai/ha, scale of 0 to 100, 0 is no effect, 100 is complete control

Compound: CCN1N=C(C(C)(C)C)CC1C(=O)Nc1cc(C(=O)N2CC=CC2)ccc1F (racemic) [Compound 310]
- Plant response rating, Soybean (soybean; [2]): 0
- Plant response rating, Soybean (soybean; [3]): 30
- Plant response rating, Lambsquarters (lambsquarters; [2]): 95
- Plant response rating, Lambsquarters (lambsquarters; [4]): 100
- Plant response rating, Lambsquarters (lambsquarters; [3]): 100
- Plant response rating, Lambsquarters (lambsquarters; [5]): 100
- Plant response rating, Sunflower [1, 2]: 0
- Plant response rating, Sunflower [1, 3]: 0
- Plant response rating, Sunflower [1, 5]: 0
- Plant response rating, Nutsedge, Yellow (yellow nutsedge; [2]): 0
- Plant response rating, Nutsedge, Yellow (yellow nutsedge; [4]): 0
- Plant response rating, Nutsedge, Yellow (yellow nutsedge; [3]): 0
- Plant response rating, Nutsedge, Yellow (yellow nutsedge; [5]): 15
- Ducksalad plant response rating (ducksalad; 62 g ai/ha, scale 0 to 100): 45
- Ducksalad plant response rating (ducksalad; [6]): 75
- Ducksalad plant response rating (ducksalad; [7]): 80
- Plant response rating, Ducksalad (ducksalad; [8]): 90
- Plant response rating, Velvetleaf (velvetleaf; [2]): 0
- Plant response rating, Velvetleaf (velvetleaf; [3]): 10
- Plant response rating, Velvetleaf (velvetleaf; [5]): 100
- Plant response rating, Goosegrass (goosegrass; [2]): 70
- Plant response rating, Goosegrass (goosegrass; [4]): 80
- Plant response rating, Goosegrass (goosegrass; [3]): 95
- Plant response rating, Goosegrass (goosegrass; [5]): 95
- Plant response rating, Cocklebur (cocklebur; [2]): 0
- Plant response rating, Cocklebur (cocklebur; [4]): 0
- Plant response rating, Cocklebur (cocklebur; [3]): 5
- Cocklebur plant response rating (cocklebur): 30
- Barnyardgrass plant response rating (barnyardgrass; [9]): 35
- Barnyardgrass plant response rating (barnyardgrass; [6]): 50
- Barnyardgrass plant response rating (barnyardgrass; [7]): 70
- Plant response rating, Barnyardgrass (barnyardgrass; [8]): 90

Compound: C=CCn1nc(C(C)(C)C)cc1C(=O)Nc1cccc(C(=O)NCC)c1 [Compound 56]
- Plant response rating (0 = no effect, 100 = complete control), Soybean (soybean; 62 g ai/ha, preemergence): 0
- Plant response rating, Soybean (soybean; [4]): 0
- Plant response rating, Soybean (soybean; [10]): 10
- Soybean plant response rating (soybean; 500 g ai/ha): 15
- Plant response rating (0 = no effect, 100 = complete control), Lambsquarters (lambsquarters; 62 g ai/ha, preemergence): 85
- Plant response rating, Lambsquarters (lambsquarters; [4]): 100
- Plant response rating, Lambsquarters (lambsquarters; [10]): 100
- Lambsquarters plant response rating (lambsquarters; 500 g ai/ha): 100
- Plant response rating (0 = no effect, 100 = complete control), Sunflower ([1]; 62 g ai/ha, preemergence): 0
- Plant response rating, Sunflower [1, 4]: 0
- Plant response rating, Sunflower [1, 10]: 0
- Sunflower plant response rating ([1]; 500 g ai/ha): 0
- Plant response rating (0 = no effect, 100 = complete control), Nutsedge, Yellow (yellow nutsedge; 62 g ai/ha, preemergence): 0
- Plant response rating, Nutsedge, Yellow (yellow nutsedge; [4]): 0
- Plant response rating, Nutsedge, Yellow (yellow nutsedge; [10]): 0
- Nutsedge, Yellow plant response rating (yellow nutsedge; 500 g ai/ha): 20
- Ducksalad plant response rating (ducksalad; [9]): 15
- Ducksalad plant response rating (ducksalad; [11]): 55
- Ducksalad plant response rating (ducksalad; [7]): 70
- Plant response rating, Ducksalad (ducksalad; [8]): 75
- Plant response rating (0 = no effect, 100 = complete control), Velvetleaf (velvetleaf; 62 g ai/ha, preemergence): 20
- Plant response rating, Velvetleaf (velvetleaf; [4]): 35
- Plant response rating, Velvetleaf (velvetleaf; [10]): 50
- Velvetleaf plant response rating (velvetleaf; 500 g ai/ha): 100
- Plant response rating (0 = no effect, 100 = complete control), Goosegrass (goosegrass; 62 g ai/ha, preemergence): 60
- Plant response rating, Goosegrass (goosegrass; [4]): 85
- Plant response rating, Goosegrass (goosegrass; [10]): 90
- Goosegrass plant response rating (goosegrass; 500 g ai/ha): 95
- Plant response rating (0 = no effect, 100 = complete control), Cocklebur (cocklebur; 62 g ai/ha, preemergence): 0
- Plant response rating, Cocklebur (cocklebur; [4]): 0
- Cocklebur plant response rating (cocklebur): 0
- Barnyardgrass plant response rating (barnyardgrass; [9]): 0
- Barnyardgrass plant response rating (barnyardgrass; [11]): 20
- Barnyardgrass plant response rating (barnyardgrass; [7]): 65
- Plant response rating, Barnyardgrass (barnyardgrass; [8]): 80

Compound: CCNC(=O)c1ccc(F)c(NC(=O)c2cn(C(C)(C)C)nc2CC)c1 [Compound 193]
- Plant response rating, Soybean (soybean; [2]): 30
- Plant response rating, Soybean (soybean; [4]): 30
- Plant response rating, Soybean (soybean; [3]): 50
- Soybean plant response rating (soybean; 500 g ai/ha): 100
- Plant response rating, Lambsquarters (lambsquarters; [2]): 50
- Plant response rating, Lambsquarters (lambsquarters; [4]): 100
- Plant response rating, Lambsquarters (lambsquarters; [3]): 100
- Lambsquarters plant response rating (lambsquarters; 500 g ai/ha): 100
- Plant response rating, Sunflower [1, 2]: 0
- Plant response rating, Sunflower [1, 4]: 0
- Plant response rating, Sunflower [1, 3]: 0
- Sunflower plant response rating ([1]; 500 g ai/ha): 50
- Plant response rating, Nutsedge, Yellow (yellow nutsedge; [2]): 0
- Plant response rating, Nutsedge, Yellow (yellow nutsedge; [4]): 0
- Plant response rating, Nutsedge, Yellow (yellow nutsedge; [3]): 10
- Nutsedge, Yellow plant response rating (yellow nutsedge; 500 g ai/ha): 60
- Ducksalad plant response rating (ducksalad; [9]): 55
- Ducksalad plant response rating (ducksalad; [6]): 70
- Ducksalad plant response rating (ducksalad; [7]): 90
- Plant response rating, Ducksalad (ducksalad; [8]): 90
- Plant response rating, Velvetleaf (velvetleaf; [2]): 0
- Plant response rating, Velvetleaf (velvetleaf; [4]): 0
- Plant response rating, Velvetleaf (velvetleaf; [3]): 70
- Velvetleaf plant response rating (velvetleaf; 500 g ai/ha): 100
- Plant response rating, Goosegrass (goosegrass; [2]): 60
- Plant response rating, Goosegrass (goosegrass; [4]): 80
- Plant response rating, Goosegrass (goosegrass; [3]): 80
- Goosegrass plant response rating (goosegrass; 500 g ai/ha): 95
- Plant response rating, Cocklebur (cocklebur; [2]): 0
- Cocklebur plant response rating (cocklebur): 100
- Barnyardgrass plant response rating (barnyardgrass; [9]): 30
- Barnyardgrass plant response rating (barnyardgrass; [6]): 55
- Barnyardgrass plant response rating (barnyardgrass; [7]): 85
- Plant response rating, Barnyardgrass (barnyardgrass; [8]): 90

Compound: CCn1nc(C(C)(C)C)cc1C(=O)Nc1ccc(OC)c(OC)c1 [Compound 298]
- Plant response rating, Soybean (soybean; [2]): 0
- Plant response rating, Soybean (soybean; [3]): 5
- Plant response rating, Soybean (soybean; [5]): 60
- Plant response rating, Lambsquarters (lambsquarters; [2]): 100
- Plant response rating, Lambsquarters (lambsquarters; [4]): 100
- Plant response rating, Lambsquarters (lambsquarters; [3]): 100
- Plant response rating, Lambsquarters (lambsquarters; [5]): 100
- Plant response rating, Sunflower [1, 2]: 0
- Plant response rating, Sunflower [1, 3]: 0
- Plant response rating, Sunflower [1, 5]: 0
- Plant response rating, Nutsedge, Yellow (yellow nutsedge; [2]): 0
- Plant response rating, Nutsedge, Yellow (yellow nutsedge; [4]): 0
- Plant response rating, Nutsedge, Yellow (yellow nutsedge; [3]): 20
- Plant response rating, Nutsedge, Yellow (yellow nutsedge; [5]): 30
- Ducksalad plant response rating (ducksalad; 62 g ai/ha, scale 0 to 100): 35
- Ducksalad plant response rating (ducksalad; [6]): 40
- Ducksalad plant response rating (ducksalad; [7]): 80
- Plant response rating, Ducksalad (ducksalad; [8]): 90
- Plant response rating, Velvetleaf (velvetleaf; [2]): 60
- Plant response rating, Velvetleaf (velvetleaf; [3]): 100
- Plant response rating, Velvetleaf (velvetleaf; [5]): 100
- Plant response rating, Goosegrass (goosegrass; [2]): 85
- Plant response rating, Goosegrass (goosegrass; [4]): 95
- Plant response rating, Goosegrass (goosegrass; [3]): 100
- Plant response rating, Goosegrass (goosegrass; [5]): 100
- Plant response rating, Cocklebur (cocklebur; [2]): 0
- Plant response rating, Cocklebur (cocklebur; [4]): 0
- Plant response rating, Cocklebur (cocklebur; [3]): 0
- Cocklebur plant response rating (cocklebur): 0
- Barnyardgrass plant response rating (barnyardgrass; [9]): 15
- Barnyardgrass plant response rating (barnyardgrass; [6]): 50
- Barnyardgrass plant response rating (barnyardgrass; [7]): 65
- Plant response rating, Barnyardgrass (barnyardgrass; [8]): 90

Compound: CCn1nc(C2(C)CC2)cc1C(=O)Nc1cc(C(=O)N2CC=CC2)ccc1F [Compound 301]
- Plant response rating, Soybean (soybean; [2]): 15
- Plant response rating, Soybean (soybean; [3]): 20
- Plant response rating, Soybean (soybean; [5]): 45
- Plant response rating, Lambsquarters (lambsquarters; [2]): 100
- Plant response rating, Lambsquarters (lambsquarters; [4]): 100
- Plant response rating, Lambsquarters (lambsquarters; [3]): 100
- Plant response rating, Lambsquarters (lambsquarters; [5]): 100
- Plant response rating, Sunflower [1, 2]: 0
- Plant response rating, Sunflower [1, 3]: 0
- Plant response rating, Sunflower [1, 5]: 0
- Plant response rating, Nutsedge, Yellow (yellow nutsedge; [2]): 0
- Plant response rating, Nutsedge, Yellow (yellow nutsedge; [4]): 5
- Plant response rating, Nutsedge, Yellow (yellow nutsedge; [3]): 10
- Plant response rating, Nutsedge, Yellow (yellow nutsedge; [5]): 20
- Ducksalad plant response rating (ducksalad; 62 g ai/ha, scale 0 to 100): 85
- Ducksalad plant response rating (ducksalad; [6]): 90
- Ducksalad plant response rating (ducksalad; [7]): 90
- Plant response rating, Ducksalad (ducksalad; [8]): 95
- Plant response rating, Velvetleaf (velvetleaf; [2]): 20
- Plant response rating, Velvetleaf (velvetleaf; [3]): 100
- Plant response rating, Velvetleaf (velvetleaf; [5]): 100
- Plant response rating, Goosegrass (goosegrass; [2]): 50
- Plant response rating, Goosegrass (goosegrass; [4]): 90
- Plant response rating, Goosegrass (goosegrass; [3]): 100
- Plant response rating, Goosegrass (goosegrass; [5]): 100
- Plant response rating, Cocklebur (cocklebur; [2]): 0
- Plant response rating, Cocklebur (cocklebur; [4]): 0
- Plant response rating, Cocklebur (cocklebur; [3]): 0
- Cocklebur plant response rating (cocklebur): 60
- Barnyardgrass plant response rating (barnyardgrass; [9]): 50
- Barnyardgrass plant response rating (barnyardgrass; [6]): 75
- Barnyardgrass plant response rating (barnyardgrass; [7]): 90
- Plant response rating, Barnyardgrass (barnyardgrass; [8]): 95

Reference: US20060069132A1, “Azolecarboxamide herbicides” (priority 2004, published 2006)
